# From US20240034736A1, “HSD17B13 INHIBITORS AND USES THEREOF” (FL2022-001, Inc., priority 2020, published 2024)
# Molecular target: Recombinant human HSD17B13 enzyme (Homo sapiens (Human), UniProt Q7Z5P4)
# Assay: HSD17b13 NAD(P)H-Glo Biochemical Assay
# Settings: for IC50: 50 uM estradiol, 1 mM NAD+, read-out: HSD17β13 IC50
# Procedure, shortened: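 Luminescent NAD(P)H-Glo detection (1 h, RT) quantified cofactor reduction after a 3 h, 37° C reaction of human HSD17B13 with estradiol (50 uM final) and NAD+ (1 mM final). Compounds were first pre-incubated 20 min at RT with enzyme in Tris pH 7.4 buffer containing Tween-20 and BSA.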
# Recombinant human HSD17B13 enzyme, sequence (Q7Z5P4 20-300): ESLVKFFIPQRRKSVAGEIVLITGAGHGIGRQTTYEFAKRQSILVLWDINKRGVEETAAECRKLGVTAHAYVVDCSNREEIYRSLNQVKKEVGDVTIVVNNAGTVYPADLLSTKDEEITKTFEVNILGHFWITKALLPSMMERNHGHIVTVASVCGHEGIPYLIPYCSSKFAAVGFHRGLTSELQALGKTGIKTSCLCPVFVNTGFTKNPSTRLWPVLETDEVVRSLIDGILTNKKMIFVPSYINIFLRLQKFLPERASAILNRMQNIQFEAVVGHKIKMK
SMILES,IC50,inhibition at 30 µM (read-out: HSD17β13 inhibition at 30 uM)
"Cc1nn(-c2cc(C(F)(F)F)c(F)c(O)c2F)c2cnc(N3CCC(OCCN(C)C)CC3)cc12 [Compound 19.60, 3-(5-(4-(2-(Dimethylamino)ethoxy)piperidin-1-yl)-3-methyl-1H-pyrazolo[3,4-c]pyridine-1-yl)-2,6-difluoro-5-(trifluoromethyl)phenol]",100 to 1000 nM,
"Cc1nn(-c2cc(O)ccc2C#N)c2cnc(N(C)C3CCOCC3)cc12 [Compound 19.61, 4-Hydroxy-2-(3-methyl-5-(methyl(tetrahydro-2H-pyran-4-yl)amino)-1H-pyrazolo[3,4-c]pyridin-1-yl)benzonitrile]",,55%
"Cc1nn(-c2cc(C(F)(F)F)c(F)c(O)c2F)c2cnc(N3CCN(c4cnn(C)c4)CC3)cc12 [Compound 19.64, 2,6-Difluoro-3-(3-methyl-5-(4-(1-methyl-1H-pyrazol-4-yl)piperazin-1-yl)-1H-pyrazolo[3,4-c]pyridin-1-yl)-5-(trifluoromethyl)phenol]",100 to 1000 nM,
"Cc1nn(-c2cc(C(F)(F)F)c(F)c(O)c2F)c2cc(F)c(N(C)C3CCOCC3)cc12 [Compound 19.68, 2,6-Difluoro-3-(6-fluoro-3-methyl-5-(methyl(tetrahydro-2H-pyran-4-yl)amino)-1H-indazol-1-yl)-5-(trifluoromethyl)phenol]",< 100 nM,
"CN(c1ccc2c(cnn2-c2cc(C(F)(F)F)c(F)c(O)c2F)c1)C1CCOCC1 [Compound 19.70, 2,6-Difluoro-3-(5-(methyl(tetrahydro-2H-pyran-4-yl)amino)-1H-indazol-1-yl)-5-(trifluoromethyl)phenol]",< 100 nM,
"COc1nn(-c2cc(C(F)(F)F)c(F)c(O)c2F)c2ccc(N(C)C3CCOCC3)cc12 [Compound 19.72, 2,6-Difluoro-3-(3-methoxy-5-(methyl(tetrahydro-2H-pyran-4-yl)amino)-1H-indazol-1-yl)-5-(trifluoromethyl)phenol]",100 to 1000 nM,
"CN(c1ccc2c(c1)c(C1CC1)nn2-c1cc(C(F)(F)F)c(F)c(O)c1F)C1CCOCC1 [Compound 19.75, 3-(3-Cyclopropyl-5-(methyl(tetrahydro-2H-pyran-4-yl)amino)-1H-indazol-1-yl)-2,6-difluoro-5-(trifluoromethyl)phenol]",100 to 1000 nM,
"CN(C)c1nn(-c2cc(C(F)(F)F)c(F)c(O)c2F)c2ccc(N(C)C3CCOCC3)cc12 [Compound 19.76, 3-(3-(Dimethylamino)-5-(methyl(tetrahydro-2H-pyran-4-yl)amino)-1H-indazol-1-yl)-2,6-difluoro-5-(trifluoromethyl)phenol]",100 to 1000 nM,
"Cc1nn(-c2cc(C(F)(F)F)c(F)c(O)c2F)c2cnc(N3CC(C)(C)OC(C)(C)C3)nc12 [Compound 19.79, 2,6-Difluoro-3-(3-methyl-5-(2,2,6,6-tetramethylmorpholino)-1H-pyrazolo[4,3-d]pyrimidin-1-yl)-5-(trifluoromethyl)phenol]",< 100 nM,
"Cc1nn(-c2cc(C(F)(F)F)c(F)c(O)c2F)c2cnc(N3CCOC4(CCC4)C3)nc12 [Compound 19.82, 2,6-Difluoro-3-(3-methyl-5-(5-oxa-8-azaspiro[3.5]nonan-8-yl)-1H-pyrazolo[4,3-d]pyrimidin-1-yl)-5-(trifluoromethyl)phenol]",< 100 nM,
"Cc1nn(-c2cc(C(F)(F)F)c(F)c(O)c2F)c2cnc(N3CCN(S(=O)(=O)c4ccccc4)CC34CC4)cc12 [Compound 19.83, 2,6-Difluoro-3-(3-methyl-5-(7-(phenylsulfonyl)-4,7-diazaspiro[2.5]octan-4-yl)-1H-pyrazolo[3,4-c]pyridin-1-yl)-5-(trifluoromethyl)phenol]",< 100 nM,
"Cc1nn(-c2cc(C(F)(F)F)c(F)c(O)c2F)c2cnc(N3CCN(S(=O)(=O)c4cnn(C)c4)CC34CC4)cc12 [Compound 19.84, 2,6-Difluoro-3-(3-methyl-5-(7-((1-methyl-1H-pyrazol-4-yl)sulfonyl)-4,7-diazaspiro[2.5]octan-4-yl)-1H-pyrazolo[3,4-c]pyridin-1-yl)-5-(trifluoromethyl)phenol]",< 100 nM,
"CC(=O)c1cc(-n2nc(C)c3cc(N4CCOCC45CC5)ncc32)cc(O)c1F [Compound 19.86, 1-(2-Fluoro-3-hydroxy-5-(3-methyl-5-(7-oxa-4-azaspiro[2.5]octan-4-yl)-1H-pyrazolo[3,4-c]pyridin-1-yl)phenyl)ethanone]",100 to 1000 nM,

# Second part, the compound after the results:
IC50,inhibition at 30 µM (read-out: HSD17β13 inhibition at 30 uM),SMILES
100 to 1000 nM,,"Cc1nn(-c2cc(C(F)(F)F)c(F)c(O)c2F)c2cnc(N3CCC(OCC4CC4)CC3)cc12 [Compound 19.59, 3-(5-(4-(Cyclopropylmethoxy)piperidin-1-yl)-3-methyl-1H-pyrazolo[3,4-c]pyridine-1-yl)-2,6-difluoro-5-(trifluoromethyl)phenol]"
100 to 1000 nM,,"Cc1nn(-c2cc(O)c(F)cc2C#N)c2cnc(N(C)C3CCOCC3)cc12 [Compound 19.62, 5-Fluoro-4-hydroxy-2-(3-methyl-5-(methyl(tetrahydro-2H-pyran-4-yl)amino)-1H-pyrazolo[3,4-c]pyridin-1-yl)benzonitrile]"
100 to 1000 nM,,"Cc1nn(-c2cc(C(F)(F)F)c(F)c(O)c2F)c2cnc(N3CCN(c4ccccc4)CC3)cc12 [Compound 19.63, 2,6-Difluoro-3-(3-methyl-5-(4-phenylpiperazin-1-yl)-1H-pyrazolo[3,4-c]pyridin-1-yl)-5-(trifluoromethyl)phenol]"
< 100 nM,,"Cc1nn(-c2cc(C(F)(F)F)c(F)c(O)c2F)c2cnc(N3CCOCC34CCC4)cc12 [Compound 19.65, 2,6-Difluoro-3-(3-methyl-5-(8-oxa-5-azaspiro[3.5]nonan-5-yl)-1H-pyrazolo[3,4-c]pyridin-1-yl)-5-(trifluoromethyl)phenol]"
< 100 nM,,"Cc1nn(-c2cc(C(F)(F)F)c(F)c(O)c2F)c2cc(F)c(N(C)C3CCOCC3)nc12 [Compound 19.66, 2,6-Difluoro-3-(6-fluoro-3-methyl-5-(methyl(tetrahydro-2H-pyran-4-yl)amino)-1H-pyrazolo[4,3-b]pyridin-1-yl)-5-(trifluoromethyl)phenol]"
< 100 nM,,"Cc1nn(-c2cc(C(F)(F)F)c(F)c(O)c2F)c2cc(F)c(N3CCOCC34CC4)cc12 [Compound 19.67, 2,6-Difluoro-3-(6-fluoro-3-methyl-5-(7-oxa-4-azaspiro[2.5]octan-4-yl)-1H-indazol-1-yl)-5-(trifluoromethyl)phenol]"
< 100 nM,,"Cc1nn(-c2cc(C(F)(F)F)c(F)c(O)c2F)c2ccc(N(C)C3CCOCC3)cc12 [Compound 19.69, 2,6-Difluoro-3-(3-methyl-5-(methyl(tetrahydro-2H-pyran-4-yl)amino)-1H-indazol-1-yl)-5-(trifluoromethyl)phenol]"
100 to 1000 nM,,"CN(c1ccc2c(c1)c(C(F)(F)F)nn2-c1cc(C(F)(F)F)c(F)c(O)c1F)C1CCOCC1 [Compound 19.71, 2,6-Difluoro-3-(5-(methyl(tetrahydro-2H-pyran-4-yl)amino)-3-(trifluoromethyl)-1H-indazol-1-yl)-5-(trifluoromethyl)phenol]"
100 to 1000 nM,,"CCc1nn(-c2cc(C(F)(F)F)c(F)c(O)c2F)c2ccc(N(C)C3CCOCC3)cc12 [Compound 19.73, 3-(3-Ethyl-5-(methyl(tetrahydro-2H-pyran-4-yl)amino)-1H-indazol-1-yl)-2,6-difluoro-5-(trifluoromethyl)phenol]"
100 to 1000 nM,,"CC(C)c1nn(-c2cc(C(F)(F)F)c(F)c(O)c2F)c2ccc(N(C)C3CCOCC3)cc12 [Compound 19.74, 2,6-Difluoro-3-(3-isopropyl-5-(methyl(tetrahydro-2H-pyran-4-yl)amino)-1H-indazol-1-yl)-5-(trifluoromethyl)phenol]"
< 100 nM,,"COC1CCN(c2ncc3c(n2)c(C)nn3-c2cc(C(F)(F)F)c(F)c(O)c2F)CC1 [Compound 19.77, 2,6-Difluoro-3-(5-(4-methoxypiperidin-1-yl)-3-methyl-1H-pyrazolo[4,3-d]pyrimidin-1-yl)-5-(trifluoromethyl)phenol]"
< 100 nM,,"Cc1nn(-c2cc(C(F)(F)F)c(F)c(O)c2F)c2cnc(N(C)C3CCOCC3)nc12 [Compound 19.78, 2,6-Difluoro-3-(3-methyl-5-(methyl(tetrahydro-2H-pyran-4-yl)amino)-1H-pyrazolo[4,3-d]pyrimidin-1-yl)-5-(trifluoromethyl)phenol]"
100 to 1000 nM,,"Oc1c(F)c(-n2ncc3nc(N4CCOCC45CC5)ncc32)cc(C(F)(F)F)c1F [Compound 19.80, 3-(5-(7-Oxa-4-azaspiro[2.5]octan-4-yl)-1H-pyrazolo[4,3-d]pyrimidin-1-yl)-2,6-difluoro-5-(trifluoromethyl)phenol]"
< 100 nM,,"Cc1nn(-c2cc(C(F)(F)F)c(F)c(O)c2F)c2cnc(N3CCOC4(CC4)C3)nc12 [Compound 19.81, 2,6-Difluoro-3-(3-methyl-5-(4-oxa-7-azaspiro[2.5]octan-7-yl)-1H-pyrazolo[4,3-d]pyrimidin-1-yl)-5-(trifluoromethyl)phenol]"
< 100 nM,,"Cc1nn(-c2cc(O)c(F)c(C(F)(F)F)c2)c2cnc(N3CCOCC34CC4)cc12 [Compound 19.85, 2-Fluoro-5-(3-methyl-5-(7-oxa-4-azaspiro[2.5]octan-4-yl)-1H-pyrazolo[3,4-c]pyridin-1-yl)-3-(trifluoromethyl)phenol]"
100 to 1000 nM,,"CN(c1ccc2c(c1)c(Cl)nn2-c1cc(C(F)(F)F)c(F)c(O)c1F)C1CCOCC1 [Compound 19.87, 3-(3-Chloro-5-(methyl(tetrahydro-2H-pyran-4-yl)amino)-1H-indazol-1-yl)-2,6-difluoro-5-(trifluoromethyl)phenol]"
100 to 1000 nM,,"COC(=O)c1nn(-c2cc(C(F)(F)F)c(F)c(O)c2F)c2ccc(N(C)C3CCOCC3)cc12 [Compound 19.88, Methyl 1-(2,4-difluoro-3-hydroxy-5-(trifluoromethyl)phenyl)-5-(methyl(tetrahydro-2H-pyran-4-yl)amino)-1H-indazole-3-carboxylate]"
1000 to 30000 nM,,"CN(c1ccc2c(c1)c(C(=O)O)nn2-c1cc(C(F)(F)F)c(F)c(O)c1F)C1CCOCC1 [Compound 19.89, 1-(2,4-Difluoro-3-hydroxy-5-(trifluoromethyl)phenyl)-5-(methyl(tetrahydro-2H-pyran-4-yl)amino)-1H-indazole-3-carboxylic Acid]"
